We go through one compound from PMC11109624, “Celastrol Ameliorates Neuronal Mitochondrial Dysfunction Induced by Intracerebral Hemorrhage via Targeting cAMP‐Activated Exchange Protein‐1” (Advanced Science, 2024).

In the assay the target is T1, cNMP-EPAC-1 (cNMP domain of EPAC-1, 149-318) (Homo sapiens, UniProt O95398).
T1 construct: gene RAPGEF3; pGEX4T1 N-terminal GST tag, removed by protease; E. coli BL21(DE3); glutathione, Ni-NTA and Superdex 75
T1 sequence (O95398 191-360): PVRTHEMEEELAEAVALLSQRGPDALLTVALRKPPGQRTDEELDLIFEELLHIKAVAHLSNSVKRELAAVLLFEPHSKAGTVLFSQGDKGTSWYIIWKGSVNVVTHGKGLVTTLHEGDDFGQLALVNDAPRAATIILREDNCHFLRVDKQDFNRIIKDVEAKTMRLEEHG
Kind of assay: isothermal titration calorimetry (MicroCal iTC200). The class given is binding. In general terms: In ITC the heat of successive injections is recorded.

As usually defined, the Kd is a measure of binding affinity in units of concentration. Take `CC1=C(O)C(=O)C=C2C1=CC=C1[C@@]2(C)CC[C@@]2(C)[C@@H]3C[C@](C)(C(=O)O)CC[C@]3(C)CC[C@]12C` [celastrol]: binding was characterised by a dissociation constant (Kd) of 1570 nM.
